Measurements reported in US7153869B2, “Substituted amino acids as erythropoietin mimetics” (priority 1998, dated 2006).
Like-named read-outs stand apart in the source and are kept apart here.

Target: T1, EBP-Ig (N-terminal 225 amino acids of the human EPO receptor joined to an Ig heavy chain) (Homo sapiens, UniProt P19235)
T1 construct: Ig heavy chain (fusion partner); made in house; host or cells: NSO cells (secreted into conditioned media)
T1 sequence (P19235 25-250 limits assumed): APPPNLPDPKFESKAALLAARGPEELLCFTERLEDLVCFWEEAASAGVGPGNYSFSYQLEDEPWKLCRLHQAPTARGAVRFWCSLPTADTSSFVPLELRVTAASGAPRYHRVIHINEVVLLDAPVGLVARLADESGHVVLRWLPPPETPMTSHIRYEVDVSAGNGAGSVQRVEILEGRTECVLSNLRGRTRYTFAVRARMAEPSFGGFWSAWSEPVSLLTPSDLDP
Experiment: Inhibition of [125I]EPO binding to immobilized EBP-Ig (EPO binding protein-Ig), scintillation Flash plate competition assay
Settings: for IC30 μM (Inhibition of EPO binding to EBP-Ig): 0–500 μM test compound; for % inh @ 50 μM (Inhibition of EPO binding to EBP-Ig): 50 μM test compound, average % inhibition

[1] = read-out: % inh @ 50 μM (Inhibition of EPO binding to EBP-Ig)
[2] = read-out: EPO/EBP-Ig % inh @ 50 μM, Table 11, 50 μM

CC(C)(C)OC(=O)CC[C@H](NC/C=C/c1cccc(Oc2ccc(C(C)(C)C)cc2)c1)C(=O)OC(C)(C)C [compound 339]
EPO/EBP-Ig % inh @ 50 μM (50 μM compound, Table 19A): 10%

CC(C)(C)OC(=O)CC[C@H](NC/C=C/c1ccc(-c2ccccc2)cc1)C(=O)O [compound 340]
EPO/EBP-Ig % inh @ 50 μM (50 μM compound, Table 19A): 14%

CC(C)(C)OC(=O)CC[C@H](NC/C=C/c1cccc(Oc2ccc(Cl)c(Cl)c2)c1)C(=O)O [compound 341]
EPO/EBP-Ig % inh @ 50 μM (50 μM compound, Table 19A): 19%

COC(=O)[C@H](CO)NC/C=C/c1ccc(-c2ccccc2)cc1.O=C(O)C(F)(F)F [compound 342]
EPO/EBP-Ig % inh @ 50 μM (50 μM compound, Table 20A): 0%

COC(=O)[C@H](CO)NC/C=C/c1cccc(Oc2ccc(C(C)(C)C)cc2)c1.O=C(O)C(F)(F)F [compound 343]
EPO/EBP-Ig % inh @ 50 μM (50 μM compound, Table 20A): 37%

COC(=O)[C@H](CO)NC/C=C/c1cccc(Oc2cccc(C(F)(F)F)c2)c1.O=C(O)C(F)(F)F [compound 344]
EPO/EBP-Ig % inh @ 50 μM (50 μM compound, Table 20A): 4%

COC(=O)[C@H](CO)NC/C=C/c1cccc(Oc2ccc(Cl)c(Cl)c2)c1.O=C(O)C(F)(F)F [compound 345]
EPO/EBP-Ig % inh @ 50 μM (50 μM compound, Table 20A): 40%

O=C(O)C(F)(F)F.O=C(O)[C@H](CO)NC/C=C/c1ccc(-c2ccccc2)cc1 [compound 348]
EPO/EBP-Ig % inh @ 50 μM (50 μM compound, Table 20A): 21%

O=C(O)C(F)(F)F.O=C(O)[C@H](CO)NC/C=C/c1cccc(Oc2ccc(Cl)c(Cl)c2)c1 [compound 349]
EPO/EBP-Ig % inh @ 50 μM (50 μM compound, Table 20A): 23%

O=C(O)C(F)(F)F.O=C(O)[C@H](CO)NC/C=C/c1cccc(Oc2cccc(C(F)(F)F)c2)c1 [compound 350]
EPO/EBP-Ig % inh @ 50 μM (50 μM compound, Table 20A): 23%

CC(C)(C)c1ccc(Oc2cccc(/C=C/CN[C@@H](CO)C(=O)O)c2)cc1.O=C(O)C(F)(F)F [compound 351]
EPO/EBP-Ig % inh @ 50 μM (50 μM compound, Table 20A): 29%

COC(=O)[C@H](COC(C)(C)C)NC/C=C/c1ccc(-c2ccccc2)cc1 [compound 353]
EPO/EBP-Ig % inh @ 50 μM (50 μM compound, Table 20A): 24%

COC(=O)[C@H](COC(C)(C)C)NC/C=C/c1cccc(Oc2ccc(Cl)c(Cl)c2)c1 [compound 354]
EPO/EBP-Ig % inh @ 50 μM (50 μM compound, Table 20A): 31%

COC(=O)[C@H](COC(C)(C)C)NC/C=C/c1cccc(Oc2cccc(C(F)(F)F)c2)c1 [compound 355]
EPO/EBP-Ig % inh @ 50 μM (50 μM compound, Table 20A): 22%

COC(=O)[C@H](COC(C)(C)C)NC/C=C/c1cccc(Oc2ccc(C(C)(C)C)cc2)c1 [compound 356]
EPO/EBP-Ig % inh @ 50 μM (50 μM compound, Table 20A): 23%

CC(C)(C)OC[C@H](NC/C=C/c1cccc(Oc2cccc(C(F)(F)F)c2)c1)C(=O)O [compound 357]
EPO/EBP-Ig % inh @ 50 μM (50 μM compound, Table 20A): 12%

C[C@H](O)[C@H](NC/C=C/c1ccc(C(F)(F)F)cc1)C(=O)O.O=C(O)C(F)(F)F [compound 358]
EPO/EBP-Ig % inh @ 50 μM (50 μM compound): 0%

COC(=O)[C@H](Cc1ccccc1)NC/C=C/c1ccccc1 [compound 360]
EPO/EBP-Ig % inh @ 50 μM (50 μM compound): 18%

CC(=O)O.COC(=O)c1cccc(/C=C/CN[C@@H](Cc2ccccc2)C(=O)OC)c1 [compound 361]
EPO/EBP-Ig % inh @ 50 μM (50 μM compound): 24%

O=C(O)C(F)(F)F.O=C(O)[C@H](Cc1ccc(O)cc1)NC/C=C/c1ccc(C(F)(F)F)cc1 [compound 362]
EPO/EBP-Ig % inh @ 50 μM (50 μM compound): 0%

COC(=O)c1cccc(C=CCNC(Cc2ccc(OC)cc2)C(=O)OC)c1 (stereo not shown) [compound 363]
IC30 μM (Inhibition of EPO binding to EBP-Ig) (0.5 nM [125I]EPO): 35 µM | inhibition at 50 µM [1]: 33% | inhibition at 50 µM (read-out: EPO/EBP-Ig % inh @ 50 μM, 50 μM compound): 33% | IC50 (read-out: IC50, μM (Inhibition of EPO binding to EBP-Ig), 0.5 nM [125I]EPO, concentration reducing corrected total binding to 50%): 220 µM

COC(=O)[C@H](Cc1c[nH]c2ccccc12)NC/C=C/c1ccccc1 [compound 364]
EPO/EBP-Ig % inh @ 50 μM (50 μM compound): 16%

CSCC[C@H](NC/C=C/c1ccc(C(F)(F)F)cc1)C(=O)O.O=C(O)C(F)(F)F [compound 365]
EPO/EBP-Ig % inh @ 50 μM (50 μM compound): 0%

CC(=O)O.COC(=O)CC(NCC=Cc1cccc(C(=O)OC)c1)C(=O)OC (stereo not shown) [compound 366]
IC30 μM (Inhibition of EPO binding to EBP-Ig) (0.5 nM [125I]EPO): 65 µM | EPO/EBP-Ig % inh @ 50 μM (50 μM compound): 38% | % inh @ 50 μM (Inhibition of EPO binding to EBP-Ig) (0.5 nM [125I]EPO): 38%

NC(=O)C[C@H](NC/C=C/c1ccc(C(F)(F)F)cc1)C(=O)O.O=C(O)C(F)(F)F [compound 367]
EPO/EBP-Ig % inh @ 50 μM (50 μM compound): 0%

CC(=O)O.COC(=O)c1cccc(C=CCNC(CSCc2ccccc2)C(=O)OC)c1 (stereo not shown) [compound 368]
IC30 μM (Inhibition of EPO binding to EBP-Ig) (0.5 nM [125I]EPO): 90 µM | EPO/EBP-Ig % inh @ 50 μM (50 μM compound): 40% | % inh @ 50 μM (Inhibition of EPO binding to EBP-Ig) (0.5 nM [125I]EPO): 40%

CC(C)C[C@H](NC/C=C/c1ccc(C(F)(F)F)cc1)C(=O)O.O=C(O)C(F)(F)F [compound 369]
EPO/EBP-Ig % inh @ 50 μM (50 μM compound): 12%

CC(C)[C@H](NC/C=C/c1ccc(C(F)(F)F)cc1)C(=O)O.O=C(O)C(F)(F)F [compound 370]
EPO/EBP-Ig % inh @ 50 μM (50 μM compound): 0%

CC(=O)O.COC(=O)c1cccc(C=CCNC(C(=O)OC)C(C)C)c1 (stereo not shown) [compound 371]
EPO/EBP-Ig % inh @ 50 μM (50 μM compound): 16%

COC(=O)[C@H](C)NC/C=C/c1ccccc1 [compound 372]
EPO/EBP-Ig % inh @ 50 μM (50 μM compound): 0%

NCCCCC(C(=O)O)N(CC=Cc1cccs1)CC=Cc1cccs1 (stereo not shown) [cpd 50]
EPO/EBP-Ig % inh @ 50 μM (Table 3, 50 μM): −6%

Cc1ccc(C(=O)Nc2cccc(CN(Cc3cccc(NC(=O)c4ccc(C)cc4)c3)C(CC(=O)O)C(=O)O)c2)cc1 (stereo not shown) [cpd 64, N,N-bis(3-(4-Methylbenzoyl)aminobenzyl)Asp-OH]
EPO/EBP-Ig % inh @ 50 μM (Table 4, 50 μM): −4%

COC(=O)C(CCC(=O)OC(C)(C)C)N(CC=Cc1cccc(Oc2ccccc2)c1)CC=Cc1cccc(Oc2ccccc2)c1 (stereo not shown) [cpd 96, N,N-bis(3-Phenoxycinnamyl)Glu(O-t-Bu)-OMe]
EPO/EBP-Ig % inh @ 50 μM (Table 6, 50 μM): −5%

CC(C)(C)OC(=O)CC(C(=O)OC(C)(C)C)N(CC=Cc1cccc(Oc2ccccc2)c1)CC=Cc1cccc(Oc2ccccc2)c1 (stereo not shown) [cpd 106, N,N-bis(3-Phenoxycinnamyl)Asp(O-t-Bu)-O-t-Bu]
EPO/EBP-Ig % inh @ 50 μM (Table 6, 50 μM): 20%

O=C(O)CC(C(=O)O)N(CC=Cc1cccc(Oc2ccccc2)c1)CC=Cc1cccc(Oc2ccccc2)c1 (stereo not shown) [cpd 107, N,N-bis(3-Phenoxycinnamyl)Asp-OH]
IC30 μM (Inhibition of EPO binding to EBP-Ig) (0.5 nM [125I]EPO): 30 µM | % inh @ 50 μM (Inhibition of EPO binding to EBP-Ig) (0.5 nM [125I]EPO): 78% | EPO/EBP-Ig % inh @ 50 μM (Table 6, 50 μM): 78%

COC(=O)C(CCCCNC(=O)OC(C)(C)C)N(Cc1ccc(OCc2ccccc2)cc1)Cc1ccc(OCc2ccccc2)cc1 (stereo not shown) [cpd 111, N,N-bis(4-Benzyloxybenzyl)Lys(Boc)-OMe]
EPO/EBP-Ig % inh @ 50 μM (Table 7, 50 μM): 5%

COC(=O)C(CCCCNC(=O)OC(C)(C)C)N(Cc1ccc(OCc2ccccc2)cc1)Cc1cccc([N+](=O)[O-])c1 (stereo not shown) [cpd 113, N-(4-Benzyloxybenzyl)-N-(3-nitrobenzyl)Lys(Boc)-OMe]
EPO/EBP-Ig % inh @ 50 μM (Table 7, 50 μM): 24%

COC(=O)C(CCCCN)N(Cc1ccc(OCc2ccccc2)cc1)Cc1cccc(NC(=O)c2ccco2)c1 (stereo not shown) [cpd 117, N-(4-Benzyloxybenzyl)-N-(3-((2-furancarbonyl)amino)benzyl)Lys-OMe]
% inh @ 50 μM (Inhibition of EPO binding to EBP-Ig) (0.5 nM [125I]EPO): 34% | EPO/EBP-Ig % inh @ 50 μM (Table 7, 50 μM): 34%

CC(C)(C)OC(=O)CCC(C(=O)NCCOCCOCCNC(=O)C(CCC(=O)OC(C)(C)C)N(Cc1ccc(OCc2ccccc2)cc1)Cc1ccc(OCc2ccccc2)cc1)N(Cc1ccc(OCc2ccccc2)cc1)Cc1ccc(OCc2ccccc2)cc1 (stereo not shown) [cpd 245, [N,N-bis(4-Benzyloxybenzyl)Glu(O-t-Bu)-NHCH2CH2OCH2]2]
EPO/EBP-Ig % inh @ 50 μM (Table 11, 50 μM): 0%

O=C(O)CCC(C(=O)NCCOCCOCCNC(=O)C(CCC(=O)O)N(Cc1ccc(OCc2ccccc2)cc1)Cc1ccc(OCc2ccccc2)cc1)N(Cc1ccc(OCc2ccccc2)cc1)Cc1ccc(OCc2ccccc2)cc1 (stereo not shown) [cpd 246, [N,N-bis(4-Benzyloxybenzyl)GluNHCH2CH2OCH2]2]
IC30 μM (Inhibition of EPO binding to EBP-Ig) (0.5 nM [125I]EPO): 10 µM | inhibition at 50 µM [1]: 79% | inhibition at 50 µM [2]: 79%

CCCCC(=O)Nc1cccc(CN(Cc2cccc(Oc3ccccc3)c2)C(CCC(=O)O)C(=O)NCCOCCOCCNC(=O)C(CCC(=O)O)N(Cc2cccc(NC(=O)CCCC)c2)Cc2cccc(Oc3ccccc3)c2)c1 (stereo not shown) [cpd 247, [N-(3-Phenoxybenzyl)-N-(3-(pentanoylamino)benzyl)-Glu-NHCH2CH2OCH2]2]
IC50: 18 µM | IC30 μM (Inhibition of EPO binding to EBP-Ig) (0.5 nM [125I]EPO): 7 µM | inhibition at 50 µM [1]: 47% | inhibition at 50 µM [2]: 47%

COC(=O)C(COC(C)(C)C)N(CC=Cc1cccc(Oc2ccccc2)c1)CC=Cc1cccc(Oc2ccccc2)c1 (stereo not shown) [cpd 290, N,N-bis(3-Phenoxycinnamyl)Ser(t-Bu)-OMe]
EPO/EBP-Ig % inh @ 50 μM (50 μM compound, Table 16A): 0%

O=C(O)[C@H](CO)N(C/C=C/c1cccc(Oc2ccccc2)c1)C/C=C/c1cccc(Oc2ccccc2)c1 [cpd 300, N,N-Bis(3-phenoxycinnamyl)Ser-OH]
IC50: 145 µM | IC30 μM (Inhibition of EPO binding to EBP-Ig) (0.5 nM [125I]EPO): 35 µM | inhibition at 50 µM [1]: 57% | inhibition at 50 µM (read-out: EPO/EBP-Ig % inh @ 50 μM, 50 μM compound, Table 16A): 57%

COC(=O)C(CCC(=O)O)NCC=Cc1cccc(Oc2ccccc2)c1 (stereo not shown) [cpd 325, N-(3-Phenoxycinnamyl)Glu-OMe]
EPO/EBP-Ig % inh @ 50 μM (50 μM compound, Table 19A): 6%

O=C(O)CCC(NCC=Cc1cccc(Oc2ccccc2)c1)C(=O)O (stereo not shown) [cpd 326, N-(3-Phenoxycinnamyl)Glu-OH]
EPO/EBP-Ig % inh @ 50 μM (50 μM compound, Table 19A): 0%

COC(=O)C(CCC(=O)OC(C)(C)C)NCC=Cc1cccc(Oc2ccccc2)c1 (stereo not shown) [cpd 334, N-(3-phenoxycinnamyl)Glu(O-t-Bu)-OMe]
EPO/EBP-Ig % inh @ 50 μM (50 μM compound, Table 19A): 6%

CC(C)(C)OC(=O)CCC(NCC=Cc1cccc(Oc2ccccc2)c1)C(=O)O (stereo not shown) [cpd 337, N-(3-Phenoxycinnamyl)Glu(O-t-Bu)-OH]
EPO/EBP-Ig % inh @ 50 μM (50 μM compound, Table 19A): 0%

COC(=O)[C@H](CO)NCC=Cc1cccc(Oc2ccccc2)c1 [cpd 346, N-(3-Phenoxycinnamyl)Ser-OMe]
EPO/EBP-Ig % inh @ 50 μM (50 μM compound, Table 20A): 28%

O=C(O)C(CO)NCC=Cc1cccc(Oc2ccccc2)c1 (stereo not shown) [cpd 347, N-(3-phenoxycinnamyl)Ser-OH]
EPO/EBP-Ig % inh @ 50 μM (50 μM compound, Table 20A): 23%
